≈ marks a conversion by molar mass, not a printed value. Each block holds one compound with its values, some of them ahead of it.
Tests used:
HeLa cell = assay: MTT method, cell proliferation inhibition by cell fractions; format: cell-based; conditions: Homo sapiens
Experimental: (§1) More particularly, cells for evaluation, i.e., a cancer cell line (for example, an MKN-28 cell or a HeLa cell) and a normal cell (for example, an MRC-5 cell or an HEF cell) are prepared as cell suspensions. An appropriately diluted series (for example, 1/2, 1/4, 1/8, 1/16, and 1/32) of a DNase solution are poured into each well of a microplate. After each cell suspension is further added into each well, the cells are cultivated for a predetermined period (for example, 4 days). After the cultivation, an MTT [3-(4,5-dimethylthiazol-2-yl)-2,5-diphenyltetrazolium bromide; Sigma chemical Co.] solution is added into each well. After an incubation for a predetermined period (for example, at 37° C. for 4 hours), a culture supernatant is removed from each well, and then an MTT formazan elution liquid [acidified isopropanol containing 10% (V/V) Triton X-100] is added into each well. […] The IC50 value is indicated as a dilution of a test liquid or a concentration (for example, μg/mL) of a test drug which can inhibit a proliferation of a control cell (without an antitumor agent) to 50%. When the dilution is high, or when the drug concentration is low, it can be judged that the drug (substance) tested has a high activity.
(§2) As cells for evaluation, the MKN-28 cell and the HeLa cell were used as cancer cell lines, and the MRC-5 cell was used as a normal cell. After each cell line was cultured for 3 days, cells were treated with trypsin, and dispersed cells were washed with PBS by centrifugation. Washed cells were suspended in a Dulbecco's modified Eagle's MEM medium containing 8% fetal calf serum (hereinafter referred to as GM), and counted with a hemocytometer. Each cell suspension was adjusted with the GM to cell densities of 5000 cells/50 μL and 2500 cells/50 μL (cancer cell lines) or 10000 cells/50 μL and 5000 cells/50 μL (MRC-5 cell).
(§3) To each well in a 96-well flat-bottomed plate, diluted series (undiluted, 1/2, 1/4, 1/8, 1/16, and 1/32; 50 μL/well) of each centrifugal supernatant or centrifugal pellet prepared in Example 1 were added. Further, each cell suspension was added to each well, and the plate was incubated at 37° C. in a CO2 incubator. After 3 or 4 days from the beginning of the incubation, 20 μL/well of an MTT solution was added to each well, and the plate was incubated at 37° C. for 3 hours. The culture supernatant was removed from each well, and 100 μL of an MTT formazan elution liquid was added to each well.
(§4) As a control, PBS was used instead of the diluted series of each centrifugal supernatant or centrifugal pellet. For comparison, 5-fold-diluted series (100 μg/mL, 20 μg/mL, 4 μg/mL, 0.8 μg/mL, 0.16 μg/mL, and 0.032 μg/mL) of 5-fluorouracil (5-FU) were used instead of the diluted series of each centrifugal supernatant or centrifugal pellet.
(§5) The IC50 values when the cancer cell line MKN-28 was used as the cell for evaluation and the centrifugal supernatant and the centrifugal pellet derived from the MKN-28 cell were used as the cell fraction are shown in Table 6. Each IC50 value shown in Table 6 (or Tables 7 to 10 described below) is an average of plural (two to four) values. Each IC50 value is shown as a dilution (i.e., relative value) of a test liquid [or a concentration of a test drug (μg/mL for 5-FU)] which can inhibit a proliferation of a control cell (without an antitumor agent) to 50%.

MRC-5 cell [1] = assay: as above; format: cell-based; conditions: Homo sapiens
Experimental: as §1, §2, §3, §4, §5

MKN-28 cell [2] = assay: as above; format: cell-based; conditions: Homo sapiens
Experimental: as §1, §2, §3, §4, §5

MRC-5 cell [3] = assay: Appearance of mitotic (round) cells after colcemid treatment; format: cell-based, human
Experimental: (§6) A synthetic colchicine, colcemid (J. Radiat. Res., 14, 258-270, 1971) was used to prepare the M-phase cell. The optimum conditions for obtaining the living M-phase cell, and the conditions for evaluation the activity of inhibiting a cell proliferation by the MTT method were examined.
(§7) More particularly, cells were cultivated in a 25-cm^2 culture flask (Falcon, 3014, 50 mL) for 3 days. After the mono-layered cells were washed, a growth medium supplemented with 0.025 μg/mL of colcemid (Nakarai, 09356-74) was added, and incubated at 37° C. for 6 hours. After the cells were washed gently, the culture flask was gently shaken to collect cells removed from the bottom of the flask. The collected cells were washed with the medium (GM) by centrifugation to remove colcemid. The washed cells were suspended in the growth medium and incubated.
(§8) The incubated cells were observed under a microscope at intervals of an hour; an appearance of mitotic cells is shown in Table 19. The appearance of mitotic cells was judged by an appearance of round cells as an index. Although almost cultured cells adhere to the glass surface and are thinly spread, mitotic cells become round and tend to leave the glass surface. Therefore, an appearance of round cells which tend to leave the monolayer was used as the index.
(§9) In Table 19, “−” means that the round cells appeared at a percentage of 0% with respect to the whole cells, “±” means that the round cells appeared at a percentage less than 5%, and “+” means that the round cells appeared at a percentage from 5% to less than 30%. The numbers in parentheses of “Round cells/flask” are numbers of positive cells strained by trypan blue.

MKN-28 cell [4] = assay: as above; format: cell-based, human
Experimental: as §6, §7, §8, §9

IC50 (HeLa cell; 72 h, Table 7, HeLa (3 days), 2500 cells/well): 5 µg/mL (≈ 38.4 µM)
IC50 (HeLa cell; 72 h, Table 7, HeLa (3 days), 5000 cells/well): 7.3 µg/mL (≈ 56.1 µM)
IC50 (HeLa cell; 72 h, Table 9, 3-day cultivation, 2500 cells/well): 7 µg/mL (≈ 53.8 µM)
IC50 (HeLa cell; 72 h, Table 9, 3-day cultivation, 5000 cells/well): 12 µg/mL (≈ 92.3 µM)
IC50 (HeLa cell; 96 h, Table 7, HeLa (4 days), 2500 cells/well): 3.6 µg/mL (≈ 27.7 µM)
IC50 (HeLa cell; 96 h, Table 7, HeLa (4 days), 5000 cells/well): 3.6 µg/mL (≈ 27.7 µM)
IC50 (HeLa cell; 96 h, Table 10, 4-day cultivation, 2500 cells/well): 6.2 µg/mL (≈ 47.7 µM)
IC50 (HeLa cell; 96 h, Table 10, 4-day cultivation, 5000 cells/well): 13 µg/mL (≈ 99.9 µM)
IC50 (MKN-28 cell [2]; MKN-28, 72 h, Table 6, MKN (3 days), 2500 cells/well): 4.6 µg/mL (≈ 35.4 µM)
IC50 (MKN-28 cell [2]; MKN-28, 72 h, Table 6, MKN (3 days), 5000 cells/well): 5.9 µg/mL (≈ 45.4 µM)
IC50 (MKN-28 cell [2]; MKN-28, 72 h, Table 9, 3-day cultivation, MKN, 2500 cells/well): 4.6 µg/mL (≈ 35.4 µM)
IC50 (MKN-28 cell [2]; MKN-28, 72 h, Table 9, 3-day cultivation, MKN, 5000 cells/well): 6 µg/mL (≈ 46.1 µM)
IC50 (MKN-28 cell [2]; MKN-28, 96 h, Table 6, MKN (4 days), 2500 cells/well): 3.7 µg/mL (≈ 28.4 µM)
IC50 (MKN-28 cell [2]; MKN-28, 96 h, Table 6, MKN (4 days), 5000 cells/well): 14.8 µg/mL (≈ 114 µM)
IC50 (MKN-28 cell [2]; MKN-28, 96 h, Table 10, 4-day cultivation, MKN, 2500 cells/well): 4.7 µg/mL (≈ 36.1 µM)
IC50 (MKN-28 cell [2]; MKN-28, 96 h, Table 10, 4-day cultivation, MKN, 5000 cells/well): 11.6 µg/mL (≈ 89.2 µM)
SMILES: O=c1[nH]cc(F)c(=O)[nH]1 [5-FU, 5-fluorouracil]
IC50 (MRC-5 cell [1]; MRC5, 72 h, Table 8, MRC (3 days), 5000 cells/well): > 100 µg/mL
IC50 (MRC-5 cell [1]; MRC5, 72 h, Table 8, MRC (3 days), 10000 cells/well): > 100 µg/mL
IC50 (MRC-5 cell [1]; MRC5, 72 h, Table 9, 3-day cultivation, MRC, 5000 cells/well): > 100 µg/mL
IC50 (MRC-5 cell [1]; MRC5, 72 h, Table 9, 3-day cultivation, MRC, 10000 cells/well): > 100 µg/mL
IC50 (MRC-5 cell [1]; MRC5, 96 h, Table 8, MRC (4 days), 5000 cells/well): 92 µg/mL (≈ 707 µM)
IC50 (MRC-5 cell [1]; MRC5, 96 h, Table 8, MRC (4 days), 10000 cells/well): > 100 µg/mL
IC50 (MRC-5 cell [1]; MRC5, 96 h, Table 10, 4-day cultivation, MRC, 5000 cells/well): 92 µg/mL (≈ 707 µM)
IC50 (MRC-5 cell [1]; MRC5, 96 h, Table 10, 4-day cultivation, MRC, 10000 cells/well): > 100 µg/mL

SMILES: CN[C@H]1CCc2cc(OC)c(OC)c(OC)c2-c2ccc(OC)c(=O)cc21 [colcemid]
Round cells/flask (MRC-5 cell [3]; MRC-5): 153000
yield of colcemid-treated cells (number of cells after the treatment/number of cells before the treatment) (MRC-5 cell [3]; MRC-5): 29%
Appearance of round cells (MRC-5 cell [3]; MRC-5, 1 hr, 0.025 μg/mL colcemid): − (the round cells appeared at a percentage of 0% with respect to the whole cells)
Appearance of round cells (MRC-5 cell [3]; MRC-5, 2 hr): ± (the round cells appeared at a percentage less than 5%)
Appearance of round cells (MRC-5 cell [3]; MRC-5, 3 hr): + (the round cells appeared at a percentage from 5% to less than 30%)
Appearance of round cells (MRC-5 cell [3]; MRC-5, 4 hr): + (the round cells appeared at a percentage from 5% to less than 30%)
Appearance of round cells (MRC-5 cell [3]; MRC-5, 5 hr): + (the round cells appeared at a percentage from 5% to less than 30%)
Round cells/flask: positive cells strained by trypan blue (MRC-5 cell [3]; MRC-5, number in parentheses): 0
Round cells/flask (MKN-28 cell [4]; MKN-28): 93000
yield of colcemid-treated cells (number of cells after the treatment/number of cells before the treatment) (MKN-28 cell [4]; MKN-28): 1.4%
Appearance of round cells (MKN-28 cell [4]; MKN-28, 1 hr, 0.025 μg/mL colcemid): − (the round cells appeared at a percentage of 0% with respect to the whole cells)
Appearance of round cells (MKN-28 cell [4]; MKN-28, 2 hr): ± (the round cells appeared at a percentage less than 5%)
Appearance of round cells (MKN-28 cell [4]; MKN-28, 3 hr): + (the round cells appeared at a percentage from 5% to less than 30%)
Appearance of round cells (MKN-28 cell [4]; MKN-28, 4 hr): + (the round cells appeared at a percentage from 5% to less than 30%)
Appearance of round cells (MKN-28 cell [4]; MKN-28, 5 hr): + (the round cells appeared at a percentage from 5% to less than 30%)
Round cells/flask: positive cells strained by trypan blue (MKN-28 cell [4]; MKN-28, number in parentheses): 0
